Experiments:
[1] = system: artificial bacterial consortia; experiment: Standard challenge assay: numbers of bacteria surviving after contact time in mineral salt solution; type: cell-based
Description: The antibacterial efficacy of monochloramine and dichloramine alone and in combination were compared in a standard challenge assay. To perform the assay, artificial bacterial consortia were prepared using the same species as those in the microtiter assays. A mineral salt solution was prepared by combining K2HPO4 (1.2 mg/l), KH2PO4 (0.624 mg/l), (NH4)2SO4 (0.05 g/l), and NaCl (0.1 mg/l). This solution was sterilized by autoclaving (121° C., 15 min) and, after cooling, it was amended with the following: 10 ml/l of filter sterilized solution of 0.5% (w/v) of CaCl2.6H2O; 10 ml/l of filter sterilized solution of 2% MgSO4.7H2O; filter-sterilized glucose (0.01 g/l, final concentration); 1 ml of a filter-sterilized solution containing Na2EDTA (ethylene diamine tetra acetate) (1.58 g/100 ml), ZnSO4.7H2O (0.7 g/100 ml); MnSO4—H2O (0.18 g/100 ml); FeSO4.7H2O (0.16 g/100 ml); COCl2.6H2O (0.052 g/100 ml); NaMoO4.2H2O (0.042 g/100 ml); and CuSO4.5H2O (0.047 g/100 ml). Equal volumes of cell suspensions of each strain were then combined to prepare the consortium. The bacterial consortium was distributed into sterile glass containers and immediately used in challenge studies. To determine the effect of pH of the mineral salt solution on efficacy of monochloramine, dichloramine, and combinations thereof, the pH of the cell suspension was adjusted to desired levels using dilute solutions of sodium hydroxide or phosphoric acid, as appropriate. The pH values tested in the challenge studies were 5.0, 6.0, 7.0, and 8.0. The pH values represent the pH of whitewater typical of the majority of paper mills.
After the monohaloamine solution was prepared, the quantity needed to achieve a desired final concentration was transferred to the previously prepared bacterial consortium. Samples of the bacterial consortium were collected immediately before addition of the monochloramine and after contact times, usually 1, 10, and 20 minutes. Controls were untreated cell suspensions.
To perform a challenge study, monochloramine was prepared to a desired concentration by mixing appropriate quantities of 30% ammonium hydroxide and 6.2% percent sodium hypochlorite in a volume of deionized water in such a manner as to achieve equimolar ratios of Cl^− and NH2^+. After preparation of the monochloramine solution, the purity of the solution was verified by determining its absorbance spectrum. To prepare a dichloramine solution, the pH of a monochloramine solution was adjusted to down to 5.0. This ensured conversion of monochloramine to dichloramine. […] The concentrations of monochloramine and dichloramine in the solutions were confirmed by measuring total chlorine concentration by Hach DPD chlorine test.
In this example, a measured amount of monochloramine and a measured amount of dichloramine were added to a consortium of bacteria prepared to a density of approximately 1×10^6 cells per milliliter and the cell suspension incubated for a selected time. The consortium of bacteria is described above. The effectiveness of the combination of biocides was determined by measuring the number of bacteria that survived after the contact time. The efficacy of monochloramine, dichloramine, and combinations of the two actives were compared at different pH values. Bacterial consortia were prepared in mineral salts solutions with pH adjusted to selected values and challenged with monochloramine and dichloramine and combinations thereof. Samples for enumerating the number of surviving bacteria were collected at selected time intervals.
Although synergy was detected when monochloramine and dichloramine were combined in a 1:1 ratio, the results of Example 1 illustrated that optimum ratios were larger than 1:1 (monochloramine to dichloramine). In this example, bacterial consortia were prepared with the pH of the mineral salts solution adjusted to selected levels immediately before the cells were added. […]

[2] = system: multi-species bacterial consortium (artificial consortium); experiment: Dose protocol: growth inhibition (O.D. 650 nm, 4 hours) of artificial bacterial consortium in synthetic white water, I50 and synergy index; type: cell-based; conditions: for Synergy Index: <1.00 synergistic; for mg/l NH2Cl (alone or in the mixture) to yield 50% inhibition (I50) / mg/l NHCl2 (alone or in the mixture) to yield 50% inhibition (I50): concurrent feed, mg/l as Cl2
Description: The efficacies of the active materials and blends were determined using a dose protocol. The actives were evaluated in synthetic white water (see Smith et al., U.S. Pat. […] The materials were tested against multi-species bacterial consortium (also referred to as an artificial consortium) containing approximately equal numbers of six bacterial strains. Although the test strains are representative of organisms present in paper mill systems, the effect is not limited to these bacteria. Two of the strains were Klebsiella pneumonia (ATCC 13883) and Pseudomonas aeruginosa (ATCC 15442). The other four strains were isolated from paper mill systems and have been identified as Curtobacterium flaccumfaciens, Burkholderia cepacia, Bacillus maroccanus, and Pseudomonas […]. Each strain was grown on Tryptic Soy Agar overnight at 37° C. Sterile cotton-tipped swabs were used to aseptically transfer cells to a sterile solution of saline. Each cell suspension was prepared to a desired concentration as measured by turbidity before equal volumes of each strain were then combined to prepare the consortium. The bacterial consortium was distributed into the wells of a microtiter plate before additions of monohaloamine and/or dihaloamine were made. The microtiter plates were incubated at 37° C. Optical density (O.D.) readings at 650 nm were taken initially (t0) and after time 4 hours (t4) of incubation. […] The inhibition values can be plotted versus dosage for each active and the particular blend. […] Synergy Index (SI)=(QA÷Qa)+(QB÷Qb) where: • QA=quantity of compound A in mixture, producing the end point • Qa=quantity of compound A, acting alone, producing the end point • QB=quantity of compound B in mixture, producing the end point • Qb=quantity of compound B, acting alone, producing the end point […] A measured amount of monochloramine and a measured amount of dichloramine were added to a suspension of bacteria and the cell suspension incubated for a selected time period. The effectiveness of the combination of biocides was determined by measuring growth or lack thereof after an additional appropriate incubation time.

[3] = pH 5.5, based on 50% inhibition
[4] = pH 8.0, based on 50% inhibition

NCl [NH2Cl, monochloramine]
Numbers of bacteria surviving after a 20 minute contact time (average of three values) ([1]; pH 5.0, 0.5 mg/l single active): 4.97 log10 | Numbers of bacteria surviving after a 20 minute contact time (average of three values) ([1]; pH 5.0, 1.0 mg/l single active): 3.94 log10 | Numbers of bacteria surviving after a 20 minute contact time (average of three values) ([1]; pH 6.0, 0.5 mg/l single active): 5.14 log10 | Numbers of bacteria surviving after a 20 minute contact time (average of three values) ([1]; pH 6.0, 1.0 mg/l single active): 5.14 log10 | Numbers of bacteria surviving after a 20 minute contact time (average of three values) ([1]; pH 7.0, 0.5 mg/l single active): 5.47 log10 | Numbers of bacteria surviving after a 20 minute contact time (average of three values) ([1]; pH 7.0, 1.0 mg/l single active): 5.17 log10 | Numbers of bacteria surviving after a 20 minute contact time (average of three values) ([1]; pH 8.0, 0.5 mg/l single active): 5.74 log10 | Numbers of bacteria surviving after a 20 minute contact time (average of three values) ([1]; pH 8.0, 1.0 mg/l single active): 5.71 log10 | Synergy Index [2, 3]: 1.00 | mg/l NH2Cl (alone or in the mixture) to yield 50% inhibition (I50) ([2]; pH 5.5, synthetic white water): 18.21 mg/L | Synergy Index [2, 4]: 1.00 | mg/l NH2Cl (alone or in the mixture) to yield 50% inhibition (I50) ([2]; pH 8.0, synthetic white water): 7.96 mg/L

ClNCl [NHCl2, dichloramine]
Numbers of bacteria surviving after a 20 minute contact time (average of three values) ([1]; pH 5.0, 0.5 mg/l single active): 5.58 log10 | Numbers of bacteria surviving after a 20 minute contact time (average of three values) ([1]; pH 5.0, 1.0 mg/l single active): 4.47 log10 | Numbers of bacteria surviving after a 20 minute contact time (average of three values) ([1]; pH 6.0, 0.5 mg/l single active): 5.17 log10 | Numbers of bacteria surviving after a 20 minute contact time (average of three values) ([1]; pH 6.0, 1.0 mg/l single active): 3.62 log10 | Numbers of bacteria surviving after a 20 minute contact time (average of three values) ([1]; pH 7.0, 0.5 mg/l single active): 5.52 log10 | Numbers of bacteria surviving after a 20 minute contact time (average of three values) ([1]; pH 7.0, 1.0 mg/l single active): 5.40 log10 | Numbers of bacteria surviving after a 20 minute contact time (average of three values) ([1]; pH 8.0, 0.5 mg/l single active): 5.62 log10 | Numbers of bacteria surviving after a 20 minute contact time (average of three values) ([1]; pH 8.0, 1.0 mg/l single active): 5.26 log10 | Synergy Index [2, 3]: 1.00 | mg/l NHCl2 (alone or in the mixture) to yield 50% inhibition (I50) ([2]; pH 5.5, synthetic white water): 17.23 mg/L | Synergy Index [2, 4]: 1.00 | mg/l NHCl2 (alone or in the mixture) to yield 50% inhibition (I50) ([2]; pH 8.0, synthetic white water): 0.59 mg/L
